The source of these data is patent publication US9012475B2, “Method for enhancing anti-tumor effect of a microtubule-targeting drug, and a method for treatment of tumor” (Taiho Pharmaceutical Co., Ltd., priority 2013, dated 2015).

SMILES strings stand for the structures.

The target of series [1] is human Aurora A (Homo sapiens (Human), UniProt O14965). Nature of the series: Measurement of Aurora A inhibitory activity (IMAP fluorescence polarization kinase assay). The class given is biochemical. As to conditions: ATP 5 μM, 25° C., 50 minutes. The method, then: (§1) The inhibitory activities of a test compound against Aurora A and Aurora B were measured according to the following method.
human Aurora A, sequence (O14965 whole entry, the tested form may be a part): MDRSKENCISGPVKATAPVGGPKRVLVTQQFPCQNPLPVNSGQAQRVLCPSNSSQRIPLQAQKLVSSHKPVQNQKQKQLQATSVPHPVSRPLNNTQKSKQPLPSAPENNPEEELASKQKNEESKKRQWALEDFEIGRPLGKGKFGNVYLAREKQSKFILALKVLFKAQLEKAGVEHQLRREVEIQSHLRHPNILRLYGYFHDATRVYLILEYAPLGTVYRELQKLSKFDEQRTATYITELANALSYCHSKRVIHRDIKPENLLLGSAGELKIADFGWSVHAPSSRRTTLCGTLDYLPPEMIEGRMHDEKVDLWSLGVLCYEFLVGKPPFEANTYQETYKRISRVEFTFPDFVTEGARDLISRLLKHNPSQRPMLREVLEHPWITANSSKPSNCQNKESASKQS
Complementary DNA of human Aurora A was fused with a histidine tag at the amino terminal, inserted into an expression vector and highly expressed in Escherichia coli BL21-CodonPlus (DE3)-RIL strain. After Escherichia coli was recovered and lysed, human Aurora A protein fused with a histidine tag was allowed to bind to a nickel chelate column and eluted by imidazole from the column. An active fraction was desalted by a desalting column to obtain purified enzyme.
In measuring inhibitory activity of the compound, first, the test compound was serially diluted by dimethylsulfoxide (DMSO). […] To the mixture, IMAP (registered trade mark) Progressive Binding Reagent diluted 500× with IMAP (registered trade mark) Progressive Binding Buffer A (manufactured by Molecular Devices) was added to terminate the kinase reaction. […] Based on the obtained fluorescence polarization degree, the amount of phosphorylation reaction was obtained.

Series [2] addresses human Aurora B (Homo sapiens (Human), UniProt Q96GD4). The series is described as follows: Measurement of Aurora B kinase activity. The class given is biochemical. As to conditions: ATP 40 μM, 60 minutes. The method, then: as §1
The concentration of the compound at which 50% of the phosphorylation reaction was suppressed was defined as IC50 value (nM).

A short description of series [3]: Evaluation of oral absorption property. In kind it is in vivo, BALE/cA mice. As to conditions: oral administration in 0.5% HPMC, plasma 0.5-6 hours, LCMS. On the procedure: A test compound was suspended or dissolved in 0.5% HPMC and orally administered to BALE/cA mice. At the time points of 0.5, 1, 2, 4 and 6 hours after oral administration, blood was sampled from the back of the eye to obtain blood plasma. The concentration of the compound in the obtained blood plasma was measured by LCMS and evaluated for oral absorption property.

The test system of series [4] is human-derived uterus cancer cell strain HeLa-luc. As to conditions: Group 1: paclitaxel 10 mg/kg iv day 1 alone, 5 rats. The source says: Cells (1×10^7) of human-derived uterus cancer cell strain HeLa-luc (manufactured by PerkinElmer Co., Ltd.) having a luciferase gene introduced therein were subcutaneously grafted to the right abdomens of nude rats. At the time the volume of a tumor developed from grafted cells reached about 200 mm^3, the rats were divided into groups each consisting of 5 rats according to stratified randomization such that each group had almost the same tumor volume. […] To Group 2 and 3, paclitaxel was administered and, on the next day, Compound 1 (30 mg/kg) was orally administered twice per day for one day or 4 days (sequential administration, see FIG. 1 (A), Sequential treatment). To the rats of Group 4 and 5, paclitaxel was administered and, on the same day, Compound 1 (30 mg/kg) was orally administered twice per day for 2 days or 4 days (concurrent administration, see FIG. 1 (B), Concurrent treatment). Compound 1 was suspended or dissolved in 0.5% (w/v) hydroxypropyl methyl cellulose (HPMC). Paclitaxel was dissolved in Cremophor EL and anhydrous ethanol, diluted with physiological saline so as to obtain a predetermined concentration and put in use.
The presence or absence of a therapeutic effect was determined by measuring the major axis and minor axis of a tumor with time and obtaining a tumor volume (TV), relative tumor volume (RTV) and T/C (%) value (average relative tumor volume ratio of the treatment group to the control group) on day 10 after initiation of administration according to the following expressions. Tumor volume (TV)={(major axis)×(minor axis)^2}/2 Relative tumor volume (RTVn) on measurement day (n)=TVn/TV1 T/C(%)={(average RTVn of treatment group)/(average RTVn of control group)}×100
TV1 represents tumor volume at the administration initiation time
Furthermore, an individual in which a tumor disappeared was specified as CR (complete remission/complete response) and the number of cases was obtained.

human Aurora B, sequence (Q96GD4 whole entry): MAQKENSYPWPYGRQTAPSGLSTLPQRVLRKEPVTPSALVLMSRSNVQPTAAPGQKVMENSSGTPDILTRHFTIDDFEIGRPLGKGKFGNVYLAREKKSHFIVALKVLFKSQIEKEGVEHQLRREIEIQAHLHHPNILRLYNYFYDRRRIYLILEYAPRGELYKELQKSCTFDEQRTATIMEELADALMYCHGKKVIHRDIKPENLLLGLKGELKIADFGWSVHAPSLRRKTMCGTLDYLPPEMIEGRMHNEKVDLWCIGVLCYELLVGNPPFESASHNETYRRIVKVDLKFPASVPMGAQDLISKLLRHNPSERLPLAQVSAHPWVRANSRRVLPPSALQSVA
human Aurora B, sequence (Q9NQS7 803-916 partner): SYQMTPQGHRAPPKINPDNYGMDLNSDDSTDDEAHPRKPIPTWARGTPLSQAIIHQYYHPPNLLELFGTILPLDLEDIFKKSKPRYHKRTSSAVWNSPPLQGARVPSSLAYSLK

In the case of `Cc1cc(Nc2nc(CC3(c4ncon4)CCN(C(=O)c4cccc(Cl)c4F)CC3)ccc2F)n[nH]1` [Production Example 24, (3-chloro-2-fluorophenyl)(4-((5-fluoro-6-(5-methyl-1H-pyrazol-3-ylamino)pyridin-2-yl)methyl)-4-(1,2,4-oxadiazol-3-yl)piperidine-1-yl)methanone], the IC50 in series [1] stood at 0.5 nM; in series [2] it was 190 nM.

Regarding `Cc1cc(Nc2nc(CC3(c4noc(C)n4)CCN(C(=O)c4cccc(Cl)c4F)CC3)ccc2F)n[nH]1` [Production Example 22, (3-chloro-2-fluorophenyl)(4-((5-fluoro-6-(5-methyl-1H-pyrazol-3-ylamino)pyridin-2-yl)methyl)-4-(5-methyl-1,2,4-oxadiazol-3-yl)piperidine-1-yl)methanone], the IC50 in series [1] is 0.7 nM; in series [2] it was 380 nM. In series [3], the “oral absorption property (concentration in blood plasma)” value (“oral absorption property” for short) was “satisfactory oral absorption property”.

As to `Cc1cc(Nc2nc(CC3(C(=O)O)CCN(C(=O)c4cccc(Cl)c4F)CC3)ccc2Cl)n[nH]1` [Production Example 12, 1-(3-chloro-2-fluorobenzoyl)-4-((5-chloro-6-(5-methyl-1H-pyrazol-3-ylamino)pyridin-2-yl)methyl)piperidine-4-carboxylic acid], the IC50 in series [1] worked out at 0.4 nM; in series [2] it was 260 nM. Also, in series [3], the “oral absorption property” value is “satisfactory oral absorption property”.

For the compound `Cc1noc(C2(Cc3ccc(F)c(Nc4cc(C)[nH]n4)n3)CCN(C(=O)c3cccc(Cl)c3F)CC2)n1` [Production Example 29, (3-chloro-2-fluorophenyl)(4-((5-fluoro-6-(5-methyl-1H-pyrazol-3-ylamino)pyridin-2-yl)methyl)-4-(3-methyl-1,2,4-oxadiazol-5-yl)piperidine-1-yl)methanone], the IC50 in series [1] is 0.8 nM; in series [2], 390 nM.

For `Cc1cc(Nc2nc(CC3(C(=O)NC4CC4)CCN(C(=O)c4cccc(Cl)c4F)CC3)ccc2F)n[nH]1` [Production Example 17, 1-(3-chloro-2-fluorobenzoyl)-N-cyclopropy1-4-((5-fluoro-6-(5-methyl-1H-pyrazol-3-ylamino)pyridin-2-yl)methyl)piperidine-4-carboxyamide], the IC50 in series [1] turned out to be 0.9 nM; in series [2], 900 nM.

Take `Cc1cc(Nc2nc(CC3(C(=O)N4CCC4)CCN(C(=O)c4cccc(Cl)c4F)CC3)ccc2F)n[nH]1` [Production Example 19, azetidin-1-yl(1-(3-chloro-2-fluorobenzoyl)-4-((5-fluoro-6-(5-methyl-1H-pyrazol-3-ylamino)pyridin-2-yl)methyl)piperidine-4-yl)methanone]: the results for the IC50 in series [1] and in series [2] were 1 nM and 880 nM, respectively.

Turning to `CC(=O)O[C@H]1C(=O)[C@@]2(C)[C@H]([C@H](OC(=O)c3ccccc3)[C@]3(O)C[C@H](OC(=O)[C@H](O)[C@@H](NC(=O)c4ccccc4)c4ccccc4)C(C)=C1C3(C)C)[C@]1(OC(C)=O)CO[C@@H]1C[C@@H]2O` [paclitaxel, reference compound], the “number of CR cases” value in series [4] is listed as “no CR cases”.

For the compound `COc1ccc(CC2(C(=O)O)CCN(C(=O)c3cccc(Cl)c3F)CC2)nc1Nc1cc(C)[nH]n1` [Production Example 11, 1-(3-chloro-2-fluorobenzoyl)-4-((5-methoxy-6-(5-methyl-1H-pyrazol-3-ylamino)pyridin-2-yl)methyl)piperidine-4-carboxylic acid], the IC50 in series [1] amounted to 0.6 nM; in series [2] it was 930 nM. In addition, in series [3], the “oral absorption property” value is “satisfactory oral absorption property”.

Regarding `CNC(=O)C1(Cc2ccc(F)c(Nc3cc(C)[nH]n3)n2)CCN(C(=O)c2cccc(Cl)c2F)CC1` [Production Example 14, 1-(3-chloro-2-fluorobenzoyl)-4-((5-fluoro-6-(5-methyl-1H-pyrazol-3-ylamino)pyridin-2-yl)methyl)-N-methylpiperidine-4-carboxyamide], the IC50 was 0.9 nM in series [1] and 460 nM in series [2].

Take `Cc1cc(Nc2nc(CC3(c4nnc(C)o4)CCN(C(=O)c4cccc(Cl)c4F)CC3)ccc2F)n[nH]1` [Production Example 28, (3-chloro-2-fluorophenyl)(4-((5-fluoro-6-(5-methyl-1H-pyrazol-3-ylamino)pyridin-2-yl)methyl)-4-(5-methyl-1,3,4-oxadiazol-2-yl)piperidine-1-yl)methanone]: the IC50 in series [1] is 0.7 nM; in series [2] it was 450 nM.

In the case of `Cc1cc(Nc2nc(CC3(C(=O)O)CCN(C(=O)c4cccc(Cl)c4F)CC3)ccc2F)n[nH]1` [Production Example 13, 1-(3-chloro-2-fluorobenzoyl)-4-((5-fluoro-6-(5-methyl-1H-pyrazol-3-ylamino)pyridin-2-yl)methyl)piperidine-4-carboxylic acid], the IC50 in series [1] was found to be 0.4 nM; in series [2], 180 nM. Also, the “oral absorption property” value in series [3] is reported as “satisfactory oral absorption property”.

On to `Cc1cc(Nc2nc(CC3(C(=O)O)CCN(C(=O)c4cccc(C(F)(F)F)c4F)CC3)ccc2F)n[nH]1` [Production Example 2, 1-(2-fluoro-3-trifluoromethylbenzoyl)-4-((5-fluoro-6-(5-methyl-1H-pyrazol-3-ylamino)pyridin-2-yl)methyl)piperidine-4-carboxylic acid], for which the figures for the IC50 in series [1] and in series [2] were 0.5 nM and 340 nM, respectively.
